How the values were obtained:
[1] = system: SNB-75; assay: NCI-60 anticancer screen (SRB; single dose and five doses)
[2] = system: A498; assay: as above; details: Homo sapiens
[3] = system: MDA-MB-468; assay: as above; assay type: cell-based, human
Summary of the method: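 NCI panel of about 60 human tumor cell lines treated with compound at a single concentration (10μM) for 48 h. Growth measured by SRB protein staining and expressed as percent growth of treated versus untreated control cells.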

[4] = system: COLO 205; assay: as above; details: Homo sapiens
[5] = system: M14; assay: as above; details: Homo sapiens
[6] = system: HL-60(TB); assay: as above; details: Homo sapiens
[7] = system: UACC-257; assay: as above; details: Homo sapiens
[8] = system: BT-549; assay: as above; details: Homo sapiens
[9] = system: SN12C; assay: as above; details: Homo sapiens
[10] = system: ACHN; assay: as above; details: Homo sapiens
[11] = system: RXF 393; assay: as above; details: Homo sapiens
[12] = system: NCI-H322M; assay: as above; details: Homo sapiens
[13] = system: MOLT-4; assay: as above; details: Homo sapiens
[14] = system: A549/ATCC; assay: as above; details: Homo sapiens
[15] = system: PC-3; assay: as above; details: Homo sapiens
[16] = system: SF-268; assay: as above; details: Homo sapiens
[17] = system: 786-0; assay: as above; details: Homo sapiens
[18] = system: HCT-15; assay: as above; details: Homo sapiens
[19] = system: NCI-H460; assay: as above; details: Homo sapiens
[20] = system: OVCAR-3; assay: cells; details: Homo sapiens
[21] = system: NCI-H226; assay: NCI-60 anticancer screen (SRB; single dose and five doses); details: Homo sapiens
[22] = system: NCI-H522; assay: as above; details: Homo sapiens
[23] = system: SK-MEL-2; assay: as above; details: Homo sapiens
[24] = system: SW-620; assay: as above; details: Homo sapiens
[25] = system: MALME-3M; assay: as above; details: Homo sapiens
[26] = 48 h, read-out: Growth Percentage

COc1cc(/C=C/C(=O)c2sc(=S)[nH]c2C)cc(OC)c1OC [2p, (E)-1-(4-Methyl-2-Thioxo-2,3-Dihydrothiazol-5-yl)-3-(3,4,5-Trimethoxyphenyl)Prop-2-En-1-One]
GI50 ([1]; Homo sapiens, SNB-75): 2.19 µM | IC50 ([1]; Homo sapiens, SNB-75): 7.59 µM | CC50 ([1]; Homo sapiens, SNB-75, read-out: LC50): 28.8 µM | TGI ([1]; five-dose, CNS Cancer SNB-75): 6.17 µM | GI50 ([2]; A498): 11.5 µM | IC50 ([2]; A498): 43.6 µM | activity at 10 µM ([2]; A498, 48 h, read-out: Growth Percentage, A498, dose of 10 μM): 96.5% | CC50 ([2]; A498, read-out: LC50): > 100 µM | IC (TGI) ([2]; A498, read-out: TGI): 34.7 µM | activity at 10 µM ([3]; Homo sapiens, 48 h, MDA-MB-468, dose of 10 μM, read-out: Growth Percentage): 3.79% | IC50 ([3]; Homo sapiens, MDA-MB-468, MDA-MB-468, Breast Cancer, five dose): 5.75 µM | GI50 ([3]; Homo sapiens, MDA-MB-468, Breast Cancer, five dose): 1.55 µM | CC50 ([3]; Homo sapiens, MDA-MB-468, Breast Cancer, five dose, read-out: LC50 (the source's name)): 17.8 µM | TGI ([3]; MDA-MB-468, Breast Cancer, five dose): 4.47 µM | GI50 ([4]; COLO 205): 16.2 µM | IC50 ([4]; COLO 205): 28.8 µM | activity at 10 µM ([4]; COLO 205, 48 h, read-out: Growth Percentage): 81.7% | CC50 ([4]; COLO 205, read-out: LC50): 70.8 µM | IC (TGI) ([4]; COLO 205, read-out: TGI): 33.9 µM | GI50 ([5]; M14): 3.24 µM | IC50 ([5]; M14): 5.13 µM | activity at 10 µM ([5]; M14, 48 h, read-out: Growth Percentage): 15.4% | IC (TGI) ([5]; M14, read-out: TGI): 13.2 µM | GI50 ([6]; HL-60): 2.57 µM | IC50 ([6]; HL-60): 3.89 µM | activity at 10 µM ([6]; HL-60, 48 h, read-out: Growth Percentage): 3.95% | CC50 ([6]; HL-60, read-out: LC50): > 100 µM | IC (TGI) ([6]; HL-60, read-out: TGI): 11.2 µM | GI50 ([7]; UACC-257): 5.13 µM | IC50 ([7]; UACC-257): 18.6 µM | activity at 10 µM ([7]; UACC-257, 48 h, read-out: Growth Percentage): 42.1% | CC50 ([7]; UACC-257, read-out: LC50): 75.9 µM | IC (TGI) ([7]; UACC-257, read-out: TGI): 21.9 µM | GI50 ([8]; BT-549): 2.95 µM | IC50 ([8]; BT-549): 11.8 µM | activity at 10 µM ([8]; BT-549, 48 h, read-out: Growth Percentage): -11.8% | IC (TGI) ([8]; BT-549, read-out: TGI): 10.7 µM | GI50 [9]: 2.29 µM | IC50 [9]: 3.89 µM | activity at 10 µM [9, 26]: 7.3% | CC50 ([9]; read-out: LC50): 46.8 µM | IC (TGI) ([9]; read-out: TGI): 9.55 µM | GI50 [10]: 3.89 µM | IC50 [10]: 6.46 µM | activity at 10 µM [10, 26]: 19.6% | CC50 ([10]; read-out: LC50): 55 µM | IC (TGI) ([10]; read-out: TGI): 16.6 µM | GI50 ([11]; RXF 393): 2.51 µM | IC50 ([11]; RXF 393): 11.2 µM | activity at 10 µM ([11]; RXF 393, 48 h, read-out: Growth Percentage): 30.3% | CC50 ([11]; RXF 393, read-out: LC50): 30.9 µM | IC (TGI) ([11]; RXF 393, read-out: TGI): 7.08 µM | GI50 [12]: 4.57 µM | IC50 [12]: 14.1 µM | CC50 ([12]; read-out: LC50): 51.3 µM | IC (TGI) ([12]; read-out: TGI): 18.6 µM | GI50 ([13]; MOLT-4): 2.88 µM | IC50 ([13]; MOLT-4): 4.17 µM | activity at 10 µM ([13]; MOLT-4, 48 h, read-out: Growth Percentage): 9.11% | CC50 ([13]; MOLT-4, read-out: LC50): > 100 µM | IC (TGI) ([13]; MOLT-4, read-out: TGI): 22.9 µM | GI50 ([14]; A549): 3.55 µM | IC50 ([14]; A549): 5.01 µM | activity at 10 µM ([14]; A549, 48 h, read-out: Growth Percentage): 26.6% | CC50 ([14]; A549, read-out: LC50): 44.7 µM | IC (TGI) ([14]; A549, read-out: TGI): 13.8 µM | GI50 ([15]; PC-3): 5.01 µM | IC50 ([15]; PC-3): 8.91 µM | activity at 10 µM ([15]; PC-3, 48 h, read-out: Growth Percentage): 35.7% | CC50 ([15]; PC-3, read-out: LC50): > 100 µM | IC (TGI) ([15]; PC-3, read-out: TGI): 41.7 µM | GI50 ([16]; SF-268): 2.63 µM | IC50 ([16]; SF-268): 6.46 µM | activity at 10 µM ([16]; SF-268, 48 h, read-out: Growth Percentage): 18.5% | CC50 ([16]; SF-268, read-out: LC50): 55 µM | IC (TGI) ([16]; SF-268, read-out: TGI): 11.2 µM | GI50 ([17]; 786-0): 4.57 µM | IC50 ([17]; 786-0): 6.61 µM | activity at 10 µM ([17]; 786-0, 48 h, read-out: Growth Percentage): 21.1% | CC50 ([17]; 786-0, read-out: LC50): 97.7 µM | IC (TGI) ([17]; 786-0, read-out: TGI): 20.9 µM | GI50 ([18]; HCT-15): 3.24 µM | IC50 ([18]; HCT-15): 4.17 µM | activity at 10 µM ([18]; HCT-15, 48 h, read-out: Growth Percentage): -3.26% | CC50 ([18]; HCT-15, read-out: LC50): 74.1 µM | IC (TGI) ([18]; HCT-15, read-out: TGI): 15.5 µM | GI50 ([19]; NCI-H460): 2.14 µM | IC50 ([19]; NCI-H460): 3.31 µM | activity at 10 µM ([19]; NCI-H460, 48 h, read-out: Growth Percentage): -1.34% | CC50 ([19]; NCI-H460, read-out: LC50): 44.7 µM | IC (TGI) ([19]; NCI-H460, read-out: TGI): 5.62 µM | GI50 ([20]; OVCAR-3): 2.45 µM | activity at 10 µM ([20]; OVCAR-3, 48 h, read-out: Growth Percentage): -25.2% | IC50 ([20]; OVCAR-3, five-dose, Ovarian Cancer OVCAR-3): 5.25 µM | CC50 ([20]; OVCAR-3, read-out: LC50): 25.7 µM | IC (TGI) ([20]; OVCAR-3, read-out: TGI): 6.92 µM | GI50 ([21]; NCI-H226): 3.63 µM | IC50 ([21]; NCI-H226): 32.4 µM | activity at 10 µM ([21]; NCI-H226, 48 h, read-out: Growth Percentage): 16.4% | CC50 ([21]; NCI-H226, read-out: LC50): > 100 µM | IC (TGI) ([21]; NCI-H226, read-out: TGI): 36.3 µM | GI50 ([22]; NCI-H522): 3.16 µM | IC50 ([22]; NCI-H522): 7.59 µM | activity at 10 µM ([22]; NCI-H522, 48 h, read-out: Growth Percentage): 16.3% | CC50 ([22]; NCI-H522, read-out: LC50): 40.7 µM | IC (TGI) ([22]; NCI-H522, read-out: TGI): 12.3 µM | GI50 ([23]; SK-MEL-2): 3.09 µM | IC50 ([23]; SK-MEL-2): 11 µM | activity at 10 µM ([23]; SK-MEL-2, 48 h, read-out: Growth Percentage): 34.9% | CC50 ([23]; SK-MEL-2, read-out: LC50): 42.7 µM | IC (TGI) ([23]; SK-MEL-2, read-out: TGI): 11.5 µM | GI50 ([24]; SW-620): 2.57 µM | IC50 ([24]; SW-620): 3.72 µM | activity at 10 µM ([24]; SW-620, 48 h, read-out: Growth Percentage): 6.92% | CC50 ([24]; SW-620, read-out: LC50): 46.8 µM | IC (TGI) ([24]; SW-620, read-out: TGI): 9.77 µM | GI50 [25]: 5.75 µM | IC50 [25]: 17.8 µM | CC50 ([25]; read-out: LC50): 55 µM | IC (TGI) ([25]; read-out: TGI): 20.4 µM

From article PMC11435058, “Synthesis of New Thiazole-Privileged Chalcones as Tubulin Polymerization Inhibitors with Potential Anticancer Activities” (Pharmaceuticals, 2024)
